Reference: publication PMC5905120, “An innovative immunotherapeutic strategy for ovarian cancer: CLEC10A and glycomimetic peptides” (Journal for Immunotherapy of Cancer, 2018)
Where two headings read alike, the source gives them in different places. Bridges are numbered along the chain shown (N, C = ends). Roman numbers before positions name the chains, in order. Where no end group is shown, it is not given here.

What was measured:
[1] = test system: serum cytokines/chemokines (mouse L-308 membrane array); assay type: in vivo; settings: 0.1 nmole/g s.c., 4 h, three animals pooled
Procedure: At 4 h post dose, terminal blood was pooled from 3 animals per group and prepared for serum. Shown in Fig. S3 are the relative levels of cytokines/chemokines in sera in response to injections of 0.1 (orange bars) or 1.0 nmole/g (grey bars) svL4 as compared with animals injected with PBS (blue).

human CLEC10A = molecular target: T1, human CLEC10A (Homo sapiens, UniProt Q8IUN9); assay: Solid-phase binding to recombinant human CLEC10A; settings: Fig. 2a, representative of 3 independent experiments
T1 construct: purchased R&D Systems
T1 sequence (Q8IUN9 61-316 limits assumed): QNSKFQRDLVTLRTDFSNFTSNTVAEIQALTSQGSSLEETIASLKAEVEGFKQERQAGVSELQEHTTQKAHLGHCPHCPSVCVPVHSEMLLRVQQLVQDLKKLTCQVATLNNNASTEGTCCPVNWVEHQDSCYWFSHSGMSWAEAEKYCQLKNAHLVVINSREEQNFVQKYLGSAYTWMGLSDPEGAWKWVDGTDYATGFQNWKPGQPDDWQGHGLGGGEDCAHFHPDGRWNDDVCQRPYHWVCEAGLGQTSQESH
Procedure: (§1) Solid-phase binding assays were performed with streptavidin-, protein A/G-, or Nickel-coated microtiter plates (Pierce). His-tagged or Fc-fusion recombinant receptors (R&D Systems, Minneapolis, MN) were reconstituted in PBS. Sufficient receptors were added to wells to saturate the coating. His-tagged receptors were added to each well at a 5-fold excess over the stated capacity of the Ni coating to minimize non-specific binding of the peptide. Wells were washed three times with binding buffer (25 mM Tris HCl, pH 7.4, 150 mM NaCl, 0.05% Tween-20) to remove unbound receptor and 50 μL of 2 μM biotinylated peptide in binding buffer were added and allowed to incubate for 1 h. The wells were washed four times with binding buffer and then incubated with 50 μL of 1 μg/mL streptavidin conjugated with peroxidase (Sigma-Aldrich) for 1 h. The wells were washed five times with binding buffer and 50 μL of peroxidase substrate (1-Step™ Ultra TMB, Pierce) were added. After several minutes to allow color development, the reaction was stopped with 50 μL 1 M H3PO4 and absorbance was measured at 450 nm. Bound streptavidin was quantitated by the specific activity of peroxidase (absorbance/ng protein conjugate/min) under the conditions of the assay.
Solid-phase binding assays were performed with recombinant human receptors. Three variations of the binding assay were used in this study, all of which allowed the arms of the tetravalent peptide to have full flexibility. (i) Biotinylated peptide was bound in microtiter wells coated with streptavidin and incubated with recombinant human receptors. After extensive washing, the bound receptor was measured by peroxidase conjugated to a receptor-specific antibody. (ii) The extracellular domains of receptors, which were fused with the Fc domain of immunoglobulin IgG, were bound in wells coated with protein A/G. Biotinylated peptide was incubated with the receptors and, after extensive washing, bound peptide was measured with streptavidin conjugated with peroxidase. Or (iii), recombinant receptors with a poly-His tag were bound to Nickel-coated wells and incubated with biotinylated peptide. svL4 and sv6D contain His residues (see Table 1) and can bind to the Ni coating, which was minimized by adding sufficient poly-His-tagged receptor to saturate the Ni coating.

CLEC9A = assay: Solid-phase binding to CLEC9A; design: species or system human; settings: Fig. 2b
Procedure: as §1, with “The wells were washed five times with binding buffer and 50 μL of peroxidase substrate (1-Step™ Ultra TMB, Pierce) were added.” left out
Solid-phase binding assays were performed with recombinant human receptors. […] After extensive washing, the bound receptor was measured by peroxidase conjugated to a receptor-specific antibody. […]

[2] = test system: serum cytokines/chemokines (mouse L-308 membrane array); assay: Serum cytokine array, healthy Balb/c mice; assay type: in vivo, mouse (Balb/c)
Procedure: Ratios of treated vs. untreated samples obtained in a separate experiment with healthy Balb/c mice are shown in the right-hand column of Table 3 for comparison. The most significant increase in the serum of healthy mice treated with the peptide was in the amount of soluble HVEM (Herpes virus entry mediator, also designated TNFRSF14), which was a prominent protein in serum and increased approximately 10-fold within 4 h after treatment. In the tumor-bearing mice, the level of soluble HVEM in treated animals was similar to that in treated healthy mice, but the level in untreated animals was higher than that in healthy control mice.

[3] = test system: TREG cells within melanoma tumors; assay: TREG cells in tumors of melanoma-bearing mice; assay type: in vivo, mouse; settings: preliminary (data not shown)
brain glioma = settings: in combination with brief radiation; ref [48]; cited from earlier work
From the text: We asked whether the collective evidence of the role of ligands of CLEC10A, such as promoting DC maturation, T cell activation, and initiation of an immune response would coalesce into an effective anti-cancer therapy. To achieve this goal, the ligand should serve as a ‘trigger’ to initiate a cascade of events that will lead to activation of the immune system. Given that natural ligands of CLEC10A that contain GalNAc bind with low affinity and are antigenic, we considered whether a multivalent peptide mimetic of GalNAc would serve this purpose. We previously described ef ...

[4] = * control value negligible or low
[5] = healthy mice, separate experiment, three animals pooled
[6] = healthy mice, separate experiment, three animals pooled, * control value negligible or low

I: VQATQSNQHTPRGGGSKK-NH2 / II: VQATQSNQHTPRGGGSK / III: VQATQSNQHTPRGGGS / IV: VQATQSNQHTPRGGGS (amide I:17-IV:C, I:18-II:C, II:17-III:C) [svL4]
ratio treated/untreated serum CCL1 [1]: 2.5 | ratio treated/untreated serum IL-1α [1]: 2.7 | ratio treated/untreated serum IL-12p70 [1]: 3.5 | ratio treated/untreated serum IL-16 [1]: 4 | ratio treated/untreated serum IL-27 [1]: 4.5 | ratio treated/untreated serum IL-28 [1]: 4.3 | ratio treated/untreated serum IL-31 [1]: 3.5 | ratio treated/untreated serum Lymphotactin [1]: ~ 3 | ratio treated/untreated serum MIP-2/CXCL2 [1]: ~ 6 | ratio treated/untreated serum Pentraxin3 [1]: ~ 4 | ratio treated/untreated serum SPARC [1]: ~ 5 | ratio treated/untreated serum TIMP-2 [1]: 3 | ratio treated/untreated serum TLR2 [1]: 4.2 | ratio treated/untreated serum sHVEM [1]: ~ 2 | ratio treated/untreated serum IFN-γ [1, 4]: High^* | ratio treated/untreated serum Lymphotoxin-α [1, 4]: 12.5* | ratio treated/untreated serum TNFα [1, 4]: 45* | binding to CLEC10A (human CLEC10A): bound to CLEC10A | binding to CLEC9A (CLEC9A): did not bind significantly | ratio treated/untreated serum CCL1 [2, 5]: No change | ratio treated/untreated serum IFN-γ [2, 5]: No change | ratio treated/untreated serum IL-1α [2, 5]: 0.86 | ratio treated/untreated serum IL-12p70 [2, 5]: No change | ratio treated/untreated serum IL-16 [2, 5]: 0.57 | ratio treated/untreated serum IL-27 [2, 5]: 0.55 | ratio treated/untreated serum Lymphotactin [2, 5]: 2.6 | ratio treated/untreated serum Lymphotoxin-α [2, 5]: 0.74 | ratio treated/untreated serum MIP-2/CXCL2 [2, 5]: No change | ratio treated/untreated serum Pentraxin3 [2, 5]: 0.21 | ratio treated/untreated serum SPARC [2, 5]: No change | ratio treated/untreated serum TIMP-2 [2, 5]: 0.45 | ratio treated/untreated serum TLR2 [2, 5]: 0.37 | ratio treated/untreated serum TNFα [2, 5]: 0.21 | ratio treated/untreated serum sHVEM [2, 5]: 10 | ratio treated/untreated serum IL-28 [2, 6]: High* | ratio treated/untreated serum IL-31 [2, 6]: High* | increase of soluble HVEM in serum ([2]; within 4 h after treatment): approximately 10 fold | TREG cells within tumors [3]: dramatic reduction in TREG cells | efficacy in murine brain glioma model (brain glioma): efficacy
